Assay results published in patent US11903957B2, “Composition for preventing, ameliorating, or treating sleep disturbance comprising flavonoid compound as effective component” (KOREA INSTITUTE OF ORIENTAL MEDICINE, priority 2018, dated 2024).

How the values were obtained:
neuropeptide Y = assay: mRNA expression level of neuropeptide Y in cerebral cortex (real-time PCR), caffeine-induced sleep disturbance; assay type: in vivo, mouse; details: 30 mg/kg saponarin or 200 mg/kg St. John's wort orally for 14 days, caffeine i.p.; cortex obtained on Day 15; compared to control; FIG. 5A
Description: (§1) 30 mg/kg saponarin (Sigma-Aldrich, St. Louis, Mo., USA; dissolved in 0.5% CMC solution) and 200 mg/kg St. John's wort (dissolved in 0.5% CMC solution) were aliquoted to satisfy the administration amount and orally administered one hour before the caffeine administration. To the normal and stress control, 0.5% CMC solution was orally administered while 30 mg/kg saponarin was administered to the saponarin group and 200 mg/kg St. John's wort was administered to the positive control, in an amount of 0.1 ml for each.
(§2) Nine-week old male C57BL/6 mouse with bodyweight of 20 to 22 g was obtained from DBL Co., Ltd. (Eumseong-Gun, Chungcheong-Bukdo, Korea). […]
(§3) Expression pattern of the gene in cerebral cortex, which has been removed from each test animal upon the completion of the test, was determined by real-time PCR. The cerebral cortex tissues of a mouse were treated with RNAzolB (Tel-Test) to extract RNA, and then analyzed by cDNA and real-time PCR instrument using One-step SYBR Green PCR kit (AB science).
(§4) The cerebral cortex tissues were added with 500 μl of RNAzol(B), disrupted using a homogenizer, and then added with 50 μl of chloroform (CHCl3) followed by mixing again for 15 seconds. […] Real time quantitative PCR was carried out by using Applied Biosystems 7500 Real-Time PCR system (Applied Biosystems, USA). […]

[1] = system: C57BL/6 mouse induced to have sleep disturbance by caffeine; assay: Open field test in animal model with sleep disturbance induced by caffeine; assay type: in vivo; details: 30 mg/kg saponarin or 200 mg/kg St. John's wort orally for 14 days, compared to control
Description: as §1
Nine-week old male C57BL/6 mouse with bodyweight of 20 to 22 g was obtained from DBL Co., Ltd. (Eumseong-Gun, Chungcheong-Bukdo, Korea). The animal was supplied with a sufficient amount of water and solid feed (not added with any antibiotics, Samyang Animal Feed Co.) till the test day, and it was used for the experiment after acclimation for 1 week under an environment with temperature of 22±2° C., humidity of 55±15%, and 12-hour light and dark cycle. The experiment was carried out as illustrated in FIG. 1. Chemicals were orally administered every day for 14 days in total, and, according to intraperitoneal administration of 10 mg/kg caffeine 1 hour thereafter, sleep disturbance was induced.
Open field test is to determine sleep disturbance and amelioration level obtained by pharmaceutical in which the determination is made by measuring the voluntary movement of a mouse after entering an unfamiliar field for the first time. A mouse was placed at the center (30×30×30 cm) of a white box, which is made of white acryl, and then travel distance (total distance moved), mobility time, mobility frequency and immobility time for 1 hour were analyzed by using Video tracking software (Ethovision XT, Noldus, Nederland).
The saponarin administration group was orally administered with 30 mg/kg saponarin. After one hour, the animal was intraperitoneally administered with 10 mg/kg caffeine to induce sleep disturbance caused by caffeine for 14 days. Then, travel distance of the mouse was measured.
Then, the mobility time and mobility frequency were measured.
Thereafter, the immobility time of mouse was measured.

cholecystokinin = assay: mRNA expression level of cholecystokinin in cerebral cortex (real-time PCR), caffeine-induced sleep disturbance; assay type: in vivo, mouse; details: 30 mg/kg saponarin or 200 mg/kg St. John's wort orally for 14 days, caffeine i.p.; cortex obtained on Day 15; compared to control; FIG. 5B
Description: as §1, §2, §3, §4

GABA A α1 receptor = assay: mRNA expression level of GABA A α1 receptor in cerebral cortex (real-time PCR), caffeine-induced sleep disturbance; assay type: in vivo, mouse; details: 30 mg/kg saponarin or 200 mg/kg St. John's wort orally for 14 days, caffeine i.p.; cortex obtained on Day 15; compared to control; FIG. 6, p<0.01
Description: as §1, §2, §3, §4

[2] = system: SD rat induced to have sleep disturbance by stress; assay: Electroencephalography (EEG) measurement in animal model with sleep disturbance induced by stress; assay type: in vivo; details: foot pad electric shock stress for 5 days, compared to stress control
Description: The saponarin administration group was administered orally with 0.1 ml of saponarin, 30 minutes before the stress application. The normal and stress control were administered orally with 0.1 ml of a solvent. Operation was carried out for four divided groups, i.e., normal, control, saponarin, and positive control (St. John's wort), and total 24 animals were used, i.e., 6 animals per group.
A male rat (7 week old) was suitably fed with solid feed and water till the test day. After the acclimation for 1 week in an environment in which temperature of 23 to 25° C., humidity of 45 to 60%, and illuminance of 200 to 300 LUX, and 12 hour light and dark cycle are maintained, the animals were subjected to the test. For the operation, a 7-week old Sprague Dawley (SD) rat was anesthetized by intraperitoneal injection of 40 mg/kg pentobarbital, and then placed and fixed on a stereotaxic instrument (Stoelting CO, USA) such that the bregma and lambda are in horizontal alignment. After suppressing subgaleal bleeding, hairs were shaved and the skull was exposed by excising the scalp and removing the periosteum. Based on the anatomy drawing by Paxinos & Watson, a hole was created by using drill, an electrode was inserted to reach the dura mater, and an electrode composed of two silver wires was inserted to neck muscle to record an electromyogram. On top of the cranial bone of cerebellum, pins attached with an electrode for recording an electroencephalogram and an electrode for recording an electromyogram were placed and fixed on top of the cranial bone by applying dental cement. […]
After the stress for 5 days, the rat was orally administered with each pharmaceutical, and, after 30 minutes, EEG recording was carried out in a light-blocking acrylic cylinder (PM 8:00 to AM 8:00). The wake time and sleep (REM and NonREM) time were recorded by using SleepSign Ver. […]
After 30 minutes, foot pad electric shock was applied to the SD rats to induce for 5 days sleep disturbance caused by stress. Wake time was then measured for each rat.

## O=c1cc(-c2ccc(O)cc2)oc2cc(O[C@@H]3O[C@H](CO)[C@@H](O)[C@H](O)[C@H]3O)c([C@@H]3O[C@H](CO)[C@@H](O)[C@H](O)[C@H]3O)c(O)c12 [saponarin, (1S)-1,5-anhydro-1-[7-(beta-D-glucopyranosyloxy)-5-hydroxy-2-(4-hydroxyphenyl)-4-oxo-4H-chromen-6-yl]-D-glucitol]
Neuropeptide Y
  mRNA expression of neuropeptide Y in cerebral cortex: show increased expression or tend to show increased expression in statistically significant sense
[1]; 10 mg/kg caffeine i.p. 1 hour later, FIG. 2, p<0.05
  travel distance (total distance moved), open field test: decreased in significant sense
[1]; 10 mg/kg caffeine i.p., FIG. 3A, p<0.01
  mobility time, open field test: decreased in significant sense
[1]; 10 mg/kg caffeine i.p., FIG. 3B, p<0.01
  mobility frequency, open field test: decreased in significant sense
[1]; 10 mg/kg caffeine i.p., FIG. 4
  immobility time, open field test: increased
cholecystokinin
  mRNA expression of cholecystokinin in cerebral cortex: show increased expression or tend to show increased expression in statistically significant sense
GABA A α1 receptor
  mRNA expression of GABA A α1 receptor in cerebral cortex: increased mRNA expression of GABA A α1 receptor in significant sense
[2]; 30 mg/kg saponarin or 200 mg/kg St. John's wort orally, FIG. 8, p<0.05
  wake time during sleep by EEG: decreased in significant sense
[2]; 30 mg/kg saponarin orally, FIG. 9
  REM sleep time by EEG: tends to increase
[2]; 30 mg/kg saponarin orally, FIG. 10
  NonREM sleep time by EEG: tends to increase
